Experimental data as given in patent US9682928B2 (NeuroPro Therapeutics, Inc., priority 2009, dated 2017).
Where “and” joins values, the source holds several entries; their conditions need not be identical. Equal entries are not always repeated. Entries after “also recorded” stand apart in the source; their conditions may differ.

Assays:
[1] = Diuresis in rat (urine volume, sodium and potassium excretion); format: in vivo; conditions: for Diuresis as measured by increased urine output and Na+/K+ excretion: rat, through 8 hours post-dose
Procedure: (§1) The animals were fasted overnight prior to dosing and had no access to drinking water prior to any pretreatment. Food and water were withheld through the terminal sample collection or for the first 6 hours of blood sample collection, where applicable. Prior to test article administration all animals were pretreated with a single IP dose of PBx. At approximately 5 to 6 minutes prior to dosing all animals received a single oral (PO) gavage dose of 0.9% Sodium Chloride for Injection, USP, at a dose volume of 15 mL/kg. The vehicle, DMSO, and the test articles, NTP-2024 and NTP-2006, were administered via a single IP dose at a dose volume of 1 mL/kg. Cumulative urine volume, sodium excretion, and potassium excretion graphs are illustrated in FIGS. 27, 28, and 29.
as §1, with “Animals” for “The animals”, “PBX.” for “PBx.”, “mL/g.” for “mL/kg.”, “compounds (e.g., NTP-2014)” for “articles, NTP-2024 and NTP-2006,”, “mL/kg.” for “mL/kg. Cumulative urine volume, sodium excretion, and potassium excretion graphs are illustrated in FIGS. 27, 28, and 29.”
as §1, with “Animals” for “The animals”, “0.15” for “15”, “FIG. 27 illustrates cumulative” for “Cumulative”, “volume.” for “volume, sodium excretion, and potassium excretion graphs are illustrated in FIGS. 27, 28, and 29.”
as §1, with “PBX.” for “PBx.”, “FIG. 28 illustrates cumulative” for “Cumulative urine volume,”, “excretion.” for “excretion, and potassium excretion graphs are illustrated in FIGS. 27, 28, and 29.”
as §1, with “PBX.” for “PBx.”, “FIG. 29 illustrates cumulative” for “Cumulative urine volume, sodium excretion, and”, “excretion.” for “excretion graphs are illustrated in FIGS. 27, 28, and 29.”

[2] = system: primate; experiment: Acute primate seizure models; conditions: in vivo
Excerpt: FIG. 13 depicts epileptiform spikes and bursts generated using software for the automatic quantification epileptiform activity. FIG. 13A depicts after-discharge activity that was elicited by 4 seconds of electrical stimulation to primate sensory cortex. The software developed by Haglund and Hochman (2007) finds the envelope around a burst of spikes and calculates the duration of the burst, the number of spikes within the burst, and the average spike amplitude of all spikes comprising the burst.
FIG. 13B depicts a typical spike generated by an acute bicuculline focus in primate motor cortex. The bicuculline model generates epileptiform activity that is similar to spontaneous interictal spiking in human subjects. Analysis of the data by the software identifies the time of occurrence of each spike and its peak-to-peak amplitude. This software can automatically process entire data sets consisting of hours of recorded data from multiple traces and generate an output of the data. Statistical analysis of data sets from multiple experiments can then be used to analyze the effects of various treatments (e.g., compounds that suppress epliptiform activity). See Haglund and Hochman (2007) “Imaging of Intrinsic Optical Signals in Primate Cortex during Epileptiform Activity.” Epilepsia 48(Suppl. 4): 65-74; See also Haglund and Hochman (Feb. 23, 2005) J. Neurophysiol. 94: 907-918.

[3] = Blood levels in rat following IP administration; format: in vivo; conditions: for Concentration of NTP-2000 (bumetanide) in rat blood: after NTP-2024 100 mg/kg IP
[4] = Solubility in dosing vehicle (0.2% HPMC in physiological saline); format: physicochemical; conditions: NTP-2024: 180 mg/kg or 18 mg/ml; NTP-2026: 100 mg/kg or 10 mg/ml

## CCCCN(CCCC)c1cc(C(=O)O)cc(S(N)(=O)=O)c1Oc1ccccc1 [NTP-2014, 3-Aminosulfonyl-5-N,N-dibutylamino-4-phenoxybenzoic acid]
[1]; NTP-2014 at 10, 50 or 100 mg/kg, PBx pretreated
  Urine output, sodium excretion and potassium excretion (FIG. 33): does not differ appreciably from the vehicle control; also recorded: does not increase; also recorded: did not increase
[1]
  Diuresis as measured by increased urine output and Na+/K+ excretion: No diuresis as measured by increased urine output and Na+/K+

## CCCCNc1cc(C(=O)O)cc(S(N)(=O)=O)c1Oc1ccccc1 [Bumetanide, reference compound]
[1]; bumetanide PO 30 mg/kg + PBx
  Excretion of urine, sodium and potassium (FIG. 33): substantial excretion
[1]; pre-treatment with inhibitor
  Diuresis in rat: diuresis evident
[2]
  Suppression of epileptiform activity: significantly more than furosemide
[3]; rats
  Effect of inhibitor pre-treatment on exposures and half-life: with inhibitor increased bumetanide exposures and half-life;

## CCCCNc1cc(C(=O)NN2CCOCC2)cc(S(N)(=O)=O)c1Oc1ccccc1 [NTP-2024, N-Morpholinyl 3-Aminosulfonyl-5-N-butylamino-4-phenoxybenzamide]
[2]
  Suppression of epileptiform activity: efficacious in suppressing epileptiform activity
[3]; NTP-2024 100 mg/kg IP, PBx pretreated, 15 m
  Concentration of NTP-2024 in rat blood: 3939.86 ng/mL and 4358.32 ng/mL and 6418.34 ng/mL
[3]; PBx pretreated, 5 m
  Concentration of NTP-2000 (bumetanide) in rat blood: 4.155 ng/mL and 3.804 ng/mL and 3.493 ng/mL
[3]; PBx pretreated, 30 m
  Concentration of NTP-2000 (bumetanide) in rat blood: 13.3456 ng/mL and 10.0076 ng/mL and 8.433 ng/mL
[3]; PBx pretreated, 1 h
  Concentration of NTP-2000 (bumetanide) in rat blood: 12.2513 ng/mL and 9.158 ng/mL and 8.065 ng/mL
[3]; PBx pretreated, 2 h
  Concentration of NTP-2000 (bumetanide) in rat blood: 15.0994 ng/mL and 8.16 ng/mL and 8.949 ng/mL
[3]; i.p., rats
  Degradation to bumetanide in the blood: does not readily degrade to bumetanide
[3]; rats pretreated with inhibitor
  Concentrations in blood and in brain tissue: Rats pretreated with inhibitor demonstrated high concentrations
[4]
  Solubility issues at the highest dose tested: Mild solubility issues

## CCCCNc1cc(C(=O)N(C)CCCN(C)C)cc(S(N)(=O)=O)c1Oc1ccccc1 [NTP-2026, N-(3-(Dimethylamino)propyl)-N-methyl 3-Aminosulfonyl-5-N-butylamino-4-phenoxybenzamide]
[1]
  Diuresis as measured by increased urine output and Na+/K+ excretion: No diuresis as measured by increased urine output and Na+/K+
[4]
  Solubility issues at the highest dose tested: Significant solubility issues
